In PMC6273807, “Identification of Selective ERRγ Inverse Agonists” (Molecules, 2016):

Key:
[1] = biological target: T1, ERRγ (Homo sapiens, UniProt P62508); assay: TR-FRET (LanthaScreen) ERRγ binding assay; settings: Table 1 screening, 2-fold serial dilution from 10 μM; for IC50: read-out: ERRγ, IC50 (binding inhibition of ERRγ binding activity)
T1 construct: purchased Life Technologies
T1 sequence (P62508 233-457 limits assumed): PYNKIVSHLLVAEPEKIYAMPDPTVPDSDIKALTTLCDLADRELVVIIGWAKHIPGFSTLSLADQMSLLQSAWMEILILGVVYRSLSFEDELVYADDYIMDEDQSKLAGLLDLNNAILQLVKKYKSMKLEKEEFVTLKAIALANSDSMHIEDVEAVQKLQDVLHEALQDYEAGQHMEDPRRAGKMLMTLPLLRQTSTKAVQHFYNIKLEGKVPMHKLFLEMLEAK
Method: Initials creening was conducted using a well established TR-FRET based ERRγ binding assay as described in the Experimental section at a concentration of 10 μM. Serial dilutions of the synthesized compounds were used to calculate IC50 values for the binding affinity with ERRγ.
ERRγ binding assay was conducted with Lantascreen assay system (Life Technologies, Grand Island, NY, USA), which was based on TR-FRET, followed by manufacturer’s instruction. Briefly, compounds were serially diluted with 2-fold staring from 10 μM and 10 μL of each diluent was added in 384 well plate. Then, GST-conjugated ERRγ LBD (ligand-binding domain) was added to be 5 nM. Next, the mixture of fluorescien-conjugated coactivator PGC1a (final concentration to be 500 nM) and Tb-a-GST antibody (final concentration to be 5 nM) was added. The reaction mixture was incubated at rt in dark state for 1 h.

[2] = biological target: T2, ERRγ (Homo sapiens, UniProt P62508); assay: ERRγ functional assay: GAL4-ERRγ luciferase reporter gene in AD293 cells; type: cell-based; settings: for inhibition at 10 µM: AD293, 24 h, screening concentration of 10 μM, read-out: transcriptional repression; for ERRγ functional activity in the cellular system (in words): 10 μM, reporter-gene assay, compared with control ligand 4
T2 sequence (P62508 233-458 limits assumed): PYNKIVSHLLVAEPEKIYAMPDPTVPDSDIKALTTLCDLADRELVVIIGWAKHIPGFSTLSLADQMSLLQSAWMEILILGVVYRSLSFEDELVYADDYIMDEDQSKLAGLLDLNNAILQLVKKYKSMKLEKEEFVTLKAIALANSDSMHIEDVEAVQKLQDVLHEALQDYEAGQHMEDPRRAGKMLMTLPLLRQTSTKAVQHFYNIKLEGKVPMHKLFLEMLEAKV
Method: Along with the binding assay campaign, functional activity was determined in order to validate the utility of the binding affinity in a cellular context as described in the Experimental.
Figure 2 Cell based reporter-gene assay screening of 16 analogs ERRγ binding activity in cell was measured by luciferase activity using co-transfection system with GAL4-ERRγ and pFR-luciferase reporter gene.
AD293 cells were cultured in Dulbecco’ modified Eagle medium (DMEM) High glucose supplemented with 0.5% FBS (Hyclone, Logan, UT, USA). After 24 h, culture media was changed with DMEM High glucose containing 10% FBS. DNA constructs, which includes pCMX-Gal4-ERRγ, pFR-luciferase reporter plasmid, pCMV-β-gal were transiently transfected into AD293 cells using TransIT-LT1 transfection reagent (Mirus, Madison, WI, USA) for 24 h. Then, transfected cells were treated with compounds for 24 h and harvested for detection of luciferase activity and β-gal activity. All cells were incubated at 37 °C under 5% CO2 in a humidified incubator [5].

[3] = biological target: T3, CYP1A2 (Homo sapiens, UniProt P05177); assay: CYP inhibition assay, cocktail, human liver microsomes (phenacetin O-deethylase); type: in vitro ADME; settings: 10 μM, activity in presence of inhibitor as % of control
T3 sequence (P05177 1-516): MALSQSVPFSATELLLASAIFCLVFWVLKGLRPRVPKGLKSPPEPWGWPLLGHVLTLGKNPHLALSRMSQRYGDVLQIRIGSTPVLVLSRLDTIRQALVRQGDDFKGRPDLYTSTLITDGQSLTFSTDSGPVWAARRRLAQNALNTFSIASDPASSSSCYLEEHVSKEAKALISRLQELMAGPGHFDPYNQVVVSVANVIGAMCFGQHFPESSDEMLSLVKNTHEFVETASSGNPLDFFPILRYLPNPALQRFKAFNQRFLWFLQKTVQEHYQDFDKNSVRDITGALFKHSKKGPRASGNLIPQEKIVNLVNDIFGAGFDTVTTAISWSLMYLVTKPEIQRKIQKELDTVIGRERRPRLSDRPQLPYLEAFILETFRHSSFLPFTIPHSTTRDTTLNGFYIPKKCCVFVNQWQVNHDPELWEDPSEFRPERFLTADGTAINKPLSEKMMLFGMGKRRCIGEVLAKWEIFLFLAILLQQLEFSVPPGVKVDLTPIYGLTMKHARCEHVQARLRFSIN

[4] = biological target: CYP2D6 (Homo sapiens, UniProt P10635); assay: CYP inhibition assay, cocktail, human liver microsomes (dextromethorphan O-demethylase); type: in vitro ADME; settings: 10 μM, activity in presence of inhibitor as % of control
[5] = Metabolic stability assay in liver microsomes (rat); type: in vitro ADME; settings: 1 μM, 30 min, 37 °C, NADPH
Method: (§1) The metabolic stability assay was performed by incubation of human and selected animal liver microsomes (most often dog, rat and mouse), at 37 °C with a test compound at a final concentration of 1 μM, in the presence of 0.5 mg/mL microsomal protein and NADPH regeneration system, in a total volume of 100 μL of 100 mM phosphate buffer, pH 7.4. The incubation was started by the addition of NADPH regeneration system and terminated with adding 40 μL of ice-cold acetonitrile at 0 and 30 min. […] Incubations terminated prior to addition of NADPH regeneration system (time point 0 min) were used as standards, defined as 100%. Percent of the parent compound remaining was calculated by comparing peak areas.

[6] = biological target: CYP2C19 (Homo sapiens, UniProt P33261); assay: CYP inhibition assay, cocktail, human liver microsomes (S-mephenytoin 4-hydroxylase); type: in vitro ADME; settings: 10 μM, activity in presence of inhibitor as % of control
[7] = Metabolic stability assay in liver microsomes (mouse); type: in vitro ADME; settings: 1 μM, 30 min, 37 °C, NADPH
Method: as §1

[8] = Metabolic stability assay in liver microsomes (human); type: in vitro ADME; settings: 1 μM, 30 min, 37 °C, NADPH
Method: as §1

[9] = Metabolic stability assay in liver microsomes (dog); type: in vitro ADME; settings: 1 μM, 30 min, 37 °C, NADPH
Method: as §1

[10] = test system: CYP3A; assay: CYP inhibition assay, cocktail, human liver microsomes (midazolam 1'-hydroxylase); type: in vitro ADME; settings: 10 μM, activity in presence of inhibitor as % of control
[11] = biological target: CYP2C9 (Homo sapiens, UniProt P11712); assay: CYP inhibition assay, cocktail, human liver microsomes (tolbutamide 4-hydroxylase); type: in vitro ADME; settings: 10 μM, human liver microsomes; activity in presence of inhibitor as % of control
Sequence of CYP2C9 (P11712 whole entry): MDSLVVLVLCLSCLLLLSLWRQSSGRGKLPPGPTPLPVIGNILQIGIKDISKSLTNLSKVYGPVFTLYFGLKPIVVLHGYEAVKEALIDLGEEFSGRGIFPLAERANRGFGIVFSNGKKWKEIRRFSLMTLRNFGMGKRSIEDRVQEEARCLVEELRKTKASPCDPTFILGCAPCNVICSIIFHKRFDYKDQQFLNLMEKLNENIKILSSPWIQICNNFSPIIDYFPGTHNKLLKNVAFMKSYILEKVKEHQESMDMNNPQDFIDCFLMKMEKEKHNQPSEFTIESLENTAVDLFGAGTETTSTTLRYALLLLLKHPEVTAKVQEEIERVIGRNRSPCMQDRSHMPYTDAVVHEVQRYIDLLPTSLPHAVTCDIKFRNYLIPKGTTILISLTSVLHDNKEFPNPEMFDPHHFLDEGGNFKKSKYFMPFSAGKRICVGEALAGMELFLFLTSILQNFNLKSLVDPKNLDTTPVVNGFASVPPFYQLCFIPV

Sequence of CYP2D6 (P10635 whole entry): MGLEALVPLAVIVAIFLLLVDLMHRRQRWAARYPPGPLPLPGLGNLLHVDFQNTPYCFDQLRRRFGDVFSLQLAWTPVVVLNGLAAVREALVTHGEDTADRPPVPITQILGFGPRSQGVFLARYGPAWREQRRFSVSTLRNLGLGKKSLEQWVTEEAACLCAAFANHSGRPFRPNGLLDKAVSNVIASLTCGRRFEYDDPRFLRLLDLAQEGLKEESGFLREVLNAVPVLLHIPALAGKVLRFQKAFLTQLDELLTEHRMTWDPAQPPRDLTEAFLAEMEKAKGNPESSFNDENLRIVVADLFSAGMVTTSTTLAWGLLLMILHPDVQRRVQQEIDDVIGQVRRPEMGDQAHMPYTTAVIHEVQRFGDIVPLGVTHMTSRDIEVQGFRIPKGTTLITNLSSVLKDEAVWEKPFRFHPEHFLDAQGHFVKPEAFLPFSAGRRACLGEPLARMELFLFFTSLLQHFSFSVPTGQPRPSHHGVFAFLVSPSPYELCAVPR
Sequence of CYP2C19 (P33261 whole entry): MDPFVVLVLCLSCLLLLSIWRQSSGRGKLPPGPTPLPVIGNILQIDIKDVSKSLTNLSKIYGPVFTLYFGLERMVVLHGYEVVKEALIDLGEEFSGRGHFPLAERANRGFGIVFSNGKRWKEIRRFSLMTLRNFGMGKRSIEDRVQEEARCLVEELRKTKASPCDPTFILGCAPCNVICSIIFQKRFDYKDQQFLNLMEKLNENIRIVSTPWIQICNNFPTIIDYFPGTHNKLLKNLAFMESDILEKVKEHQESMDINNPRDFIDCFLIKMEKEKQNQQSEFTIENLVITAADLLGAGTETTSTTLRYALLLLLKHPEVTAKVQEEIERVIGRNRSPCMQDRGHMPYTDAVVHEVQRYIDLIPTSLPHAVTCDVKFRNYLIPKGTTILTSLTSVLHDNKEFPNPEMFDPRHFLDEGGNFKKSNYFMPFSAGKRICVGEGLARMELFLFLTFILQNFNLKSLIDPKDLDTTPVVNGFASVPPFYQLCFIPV

Structure (SMILES)	IC50 [1] [µM]	inhibition at 10 µM [2] [%]	other results
CN(C)CCOc1ccc(/C(=C/CCCO)c2ccc(O)cc2)cc1 [Compound 15a, (E)-4-(1-(4-(2-(Dimethylamino)ethoxy)phenyl)-5-hydroxypent-1-en-1-yl)phenol]	> 10	~0	
CN(C)CCOc1ccc(/C(=C(/CCCO)c2ccnc(F)c2)c2ccc(O)cc2)cc1 [Compound 15e, (Z)-4-(1-(4-(2-(Dimethylamino)ethoxy)phenyl)-2-(2-fluoropyridin-4-yl)-5-hydroxypent-1-en-1-yl)phenol]	5.35		ERRγ functional activity in the cellular system (in words) [2]: comparable regression of the ERRγ transcriptional activity
CN(C)CCOc1ccc(/C(=C(/CCCO)c2ccc(N3CCOCC3)nc2)c2ccc(O)cc2)cc1 [Compound 15f, (Z)-4-(1-(4-(2-(Dimethylamino)ethoxy)phenyl)-5-hydroxy-2-(6-morpholinopyridin-3-yl)pent-1-en-1-yl)phenol]	> 10		ERRγ functional activity in the cellular system (in words) [2]: partial agonistic activity
COCCC/C(=C(\c1ccc(O)cc1)c1ccc(OCCN(C)C)c(C(F)(F)F)c1)c1cccnc1 [Compound 16]	> 10	~0	ERRγ, IC50 (binding inhibition of ERRγ binding activity) [1]: no affinity
COCCC/C(=C(\c1ccc(O)cc1)c1ccc(OCCN(C)C)cc1)c1ccncc1 [Compound 13b, (Z)-4-(1-(4-(2-(Dimethylamino)ethoxy)phenyl)-5-methoxy-2-(pyridin-4-yl)pent-1-en-1-yl)phenol]	> 10	~50	
CN(C)CCOc1ccc(/C(=C(/CCCO)c2ccc(O)cc2)c2ccc(O)cc2)cc1 [Compound 15b, (Z)-4,4′-(1-(4-(2-(Dimethylamino)ethoxy)phenyl)-5-hydroxypent-1-ene-1,2-diyl)diphenol]	2.32		
CN(C)CCOc1ccc(/C(=C(/CCCO)c2ccc3nccn3c2)c2ccc(O)cc2)cc1 [Compound 15i, (Z)-4-(1-(4-(2-(Dimethylamino)ethoxy)phenyl)-5-hydroxy-2-(imidazo[1,2-a]pyridin-6-yl)pent-1-en-1-yl)phenol]	> 10	~0	
COCCC/C(=C(\c1ccc(O)cc1)c1ccc(OCCN(C)C)cc1)c1ccc(C(C)C)nc1 [Compound 17, (Z)-4-(1-(4-(2-(Dimethylamino)ethoxy)phenyl)-2-(6-isopropylpyridin-3-yl)-5-methoxypent-1-en-1-yl)phenol]	> 10	~50	
CN(C)CCOc1ccc(/C(=C(/CCCO)c2ccccc2)c2ccc(O)cc2)cc1 [Compound 4, GSK5182, reference compound]			CYP Inhibition (% of Control), 1A2 [3]: 84 % of Control; CYP Inhibition (% of Control), 2D6 [4]: 82 % of Control; MS (%), Rat (percent of parent compound remaining) [5]: 26%; CYP Inhibition (% of Control), 2C19 [6]: 78 % of Control; MS (%), Mouse (percent of parent compound remaining) [7]: less than 10%; MS (%), Human (percent of parent compound remaining) [8]: 43%; MS (%), Dog (percent of parent compound remaining) [9]: less than 10%; CYP Inhibition (% of Control), 3A4 [10]: 83 % of Control; CYP Inhibition (% of Control), 2C9 [11]: 73 % of Control
COCCC/C(=C(\c1ccc(O)cc1)c1ccc(OCCN(C)C)cc1)c1cnn(C)c1 [Compound 13c, (Z)-4-(1-(4-(2-(Dimethylamino)ethoxy)phenyl)-5-methoxy-2-(1-methyl-1H-pyrazol-4-yl)pent-1-en-1-yl)-phenol]	> 10	~50	
COc1ccc(/C(CCCO)=C(/c2ccc(O)cc2)c2ccc(OCCN(C)C)cc2)cn1 [Compound 15c, (Z)-4-(1-(4-(2-(Dimethylamino)ethoxy)phenyl)-5-hydroxy-2-(6-methoxypyridin-3-yl)pent-1-en-1-yl)phenol]	> 10	~50	
CN(C)CCOc1ccc(/C(=C(/CCCO)c2ccc3ccncc3c2)c2ccc(O)cc2)cc1 [Compound 15j, (Z)-4-(1-(4-(2-(Dimethylamino)ethoxy)phenyl)-5-hydroxy-2-(isoquinolin-7-yl)pent-1-en-1-yl)phenol]	4.71		
CN(C)CCOc1ccc(/C(=C(/CCCO)c2cccnc2)c2ccc(O)cc2)cc1 [Compound 15d, (Z)-4-(1-(4-(2-(Dimethylamino)ethoxy)phenyl)-5-hydroxy-2-(pyridin-3-yl)pent-1-en-1-yl)phenol]	3.1		
COCCC/C(=C(\c1ccc(O)cc1)c1ccc(OCCN(C)C)cc1)c1cccnc1 [Compound 13a, (Z)-4-(1-(4-(2-(Dimethylamino)ethoxy)phenyl)-5-methoxy-2-(pyridin-3-yl)pent-1-en-1-yl)phenol]	0.99		ERRγ functional activity in the cellular system (in words) [2]: comparable regression of the ERRγ transcriptional activity
